# Assay results as given in US5801191A, “Taxoids” (Biophysica Foundation, priority 1995, dated 1998).
# pIC50: −log10 of the molar value. “Also recorded” adds a separate entry of the source.
# Tests used:
# [1] = system: PC-3 human prostate tumor; experiment: In vivo efficacy against established PC-3 human prostate tumor in athymic nude mice
# Excerpt: Example 11. In vivo efficacy of Taxoid BP-193
# Molt-4 T-cell Leukemia = settings: molt-4 cells
# PC-3 Prostate Carcinoma = settings: pc-3 cells
# [2] = system: DU-145 Prostate Carcinoma; settings: du-145 cells
# [3] = system: Ln-Cap Prostate Carcinoma; settings: lncap cells
# [4] = system: Ovcar-3 Ovarian Carcinoma; settings: ovcar-3 cells
# MCF-7 Breast Carcinoma = settings: mcf-7 cells
# [5] = Water solubility / formulation in aqueous vehicles
# [6] = system: panel of human tumor cell lines; experiment: Cytotoxic activity in a panel of human tumor cell lines as compared to paclitaxel
# [7] = Physician's Desk Reference (1994) 670, cited from earlier work
# [8] = background; cited from earlier work
Compound,toxicity as compared with paclitaxel ([1]; PC-3 tumor-bearing mice),tumor regression ([1]; all mice treated with BP-193),"anti-cellular proliferative activity, as measured by the reduction in tumor growth ([1]; established PC-3 tumor, vs vehicle and Taxol control)",pIC50 (Molt-4 T-cell Leukemia),pIC50 (PC-3 Prostate Carcinoma),pIC50 [2],pIC50 [3],pIC50 [4],pIC50 (MCF-7 Breast Carcinoma),formulation in aqueous vehicles [5],water solubility as compared with paclitaxel [5],cytotoxic activity as compared to paclitaxel [6],plasma concentration following infusion [7],mean steady state volume of distribution ([7]; following infusion) [LIm^2],"side effects (hypersensitivity, myelosuppression, neuropathy, alopecia, cardio-toxicity) [8]"
"CC(=O)O[C@H]1C(=O)[C@@]2(C)[C@H]([C@H](OC(=O)c3ccccc3)[C@]3(O)C[C@H](OC(=O)[C@H](OC(=O)OCCC(O)CO)[C@@H](NC(=O)c4ccccc4)c4ccccc4)C(C)=C1C3(C)C)[C@]1(OC(C)=O)CO[C@@H]1C[C@@H]2O (stereo partly shown) [BP-193, 2'-(3^11,4""-dihydroxybutyl-carbonoxy)paclitaxel]",lacking the toxicity of paclitaxel,all tumors regressed to pretreatment levels,significant anti-cellular proliferative activity,8.40,5.81,8.85,7.71,7.26,8.06,readily formulated in standard aqueous vehicles,more water soluble than paclitaxel,"cytotoxic activity equal to, or greater than, paclitaxel",,,
"CC(=O)O[C@H]1C(=O)[C@]2(C)[C@@H](OC(=O)NCCN3C(=S)N(c4ccc(C#N)c(C(F)(F)F)c4)C(=O)C3(C)C)C[C@H]3OC[C@@]3(OC(C)=O)[C@H]2[C@H](OC(=O)c2ccccc2)[C@]2(O)C[C@H](OC(=O)[C@H](O)[C@@H](NC(=O)c3ccccc3)c3ccccc3)C(C)=C1C2(C)C [BP-196, 7-[imidazolidinyl-5"", 5""-dimethyl-4""-oxo-3""-[(4""'-cyano-3""'-trifluoromethyl)phenyl]-2""-thioxo-1""ethylcarbamoxy]paclitaxel]",,,,,,,,,,readily formulated in standard aqueous vehicles,more water soluble than paclitaxel,comparable cytotoxic activity to paclitaxel,,,
"CC(=O)O[C@H]1C(=O)[C@]2(C)[C@@H](OC(=O)OCC(O)CO)C[C@H]3OC[C@@]3(OC(C)=O)[C@H]2[C@H](OC(=O)c2ccccc2)[C@]2(O)C[C@H](OC(=O)[C@H](OC(=O)OCC(O)CO)[C@@H](NC(=O)c3ccccc3)c3ccccc3)C(C)=C1C2(C)C (stereo partly shown) [BP-177, 2',7-di(2"",3""-dihydroxypropylcarbonoxy)paclitaxel]",,,,6.15,7.24,7.04,7.57,7.30,6.47,readily formulated in standard aqueous vehicles,more water soluble than paclitaxel,comparable cytotoxic activity to paclitaxel,,,
"CC(=O)O[C@H]1C(=O)[C@@]2(C)[C@H]([C@H](OC(=O)c3ccccc3)[C@]3(O)C[C@H](OC(=O)[C@H](OC(=O)OCC(O)CO)[C@@H](NC(=O)c4ccccc4)c4ccccc4)C(C)=C1C3(C)C)[C@]1(OC(C)=O)CO[C@@H]1C[C@@H]2O (stereo partly shown) [BP-171, 2'-(2"",3""-dihydroxypropylcarbonoxy)paclitaxel]",,,,,,,,,,readily formulated in standard aqueous vehicles,more water soluble than paclitaxel; also recorded: enhanced water solubility as compared with paclitaxel,"cytotoxic activity equal to, or greater than, paclitaxel",,,
"CC(=O)O[C@H]1C(=O)[C@@]2(C)[C@H]([C@H](OC(=O)c3ccccc3)[C@]3(O)C[C@H](OC(=O)[C@H](O)[C@@H](NC(=O)c4ccccc4)c4ccccc4)C(C)=C1C3(C)C)[C@]1(OC(C)=O)CO[C@@H]1C[C@@H]2O [Taxol, paclitaxel, reference compound]",,,,,,8.67,8.82,8.65,8.30,,,,rapidly declines following infusion,42 to 162,about 30 % of patients
"CC(=O)O[C@H]1C(=O)[C@]2(C)[C@@H](OC(=O)OCC(O)CO)C[C@H]3OC[C@@]3(OC(C)=O)[C@H]2[C@H](OC(=O)c2ccccc2)[C@]2(O)C[C@H](OC(=O)[C@H](O)[C@@H](NC(=O)c3ccccc3)c3ccccc3)C(C)=C1C2(C)C (stereo partly shown) [BP-179, 7-(2"",3""-dihydroxypropylcarbonoxy)paclitaxel]",,,,6.70,8.49,7.69,7.69,7.30,6.09,,,,,,
"CC(=O)O[C@H]1C(=O)[C@@]2(C)[C@H]([C@H](OC(=O)c3ccccc3)[C@]3(O)C[C@H](OC(=O)[C@H](OC(=O)NCC(O)CO)[C@@H](NC(=O)c4ccccc4)c4ccccc4)C(C)=C1C3(C)C)[C@]1(OC(C)=O)CO[C@@H]1C[C@@H]2O (stereo partly shown) [BP-174, 2'-(2"",3""-dihydroxypropylcarbamoxy) paclitaxel]",,,,,,,,,,readily formulated in standard aqueous vehicles,more water soluble than paclitaxel; also recorded: enhanced water solubility as compared with paclitaxel,comparable cytotoxic activity to paclitaxel,,,
